Consider 7 compounds from PMC5219024, “New acetylenic derivatives of betulin and betulone, synthesis and cytotoxic activity” (Medicinal Chemistry Research, 2016).

The test system of data set [1] is cyprid larvae of the barnacle Balanus albicostatus. Further details: method as in Chen et al., [2011]. To be noted: ref Chen et al., [2011]; cited from earlier work.
Data set [2] has as its system mouse melanoma (B16 2F2) cell line. More on the design: method as in Hata et al., [2002]. To be noted: ref Hata et al., [2002], read-out: anticancer effect IC50, B16 2F2; cited from earlier work.
Data set [3] has as its system HL-60 (human promyelocytic leukemia). In words: Antiproliferative assay in vitro (MTT), HL-60. The format is cell-based. To be noted: for IC50: Homo sapiens, HL-60 cancer cell line, 96 h exposure, read-out: Cytotoxic activity IC50, HL-60. The protocol:
(§1) The tested cell lines were obtained from the American Type Culture Collection (Rockville, Maryland, USA) and maintained at the Cell Culture Collection of the Institute of Immunology and Experimental Therapy (Wrocław, Poland). The cells were seeded in 96-well plates (Sarstedt, USA) at a density of 10^4 cells per well in 100 µL of culture medium overnight. […] The normal mouse fibroblasts BALB3T3 was cultured in Dulbecco’s modified Eagle’s medium (Sigma-Aldrich, Chemie GmbH, Steinheim, Germany) supplemented with 2 mM glutamine (Sigma-Aldrich, Chemie GmbH, Steinheim, Germany) and 10 % fetal calf serum FBS (Sigma-Aldrich, Chemie GmbH, Steinheim, Germany). The all culture media were supplemented with streptomycin (100 µg/mL) and penicillin (100 U/mL) (both antibiotics from Polfa, Tarchomin, Poland). The cell cultures were maintained at 37 °C in humid atmosphere saturated with 5 % CO2. The MTT assay was used for the cytotoxicity screening against leukemia cells growing in suspension culture. This assay was performed after 96 h of the leukemia cells to varying concentrations (ranging from 1 to 100 µg/mL) of the tested substances. The derivatives of betulin were dissolved in 10 % DMSO to concentration of 1 mg/mL, and next diluted in culture medium to reach the required concentrations. […] During the last 3–4 h of incubation 20 µl of MTT solution were added to each well (MTT: 3-(4,5-dimethylthiazol-2-yl)-2,5-diphenyl tetrazolium bromide; stock solution: 5 mg/mL). The pale yellow MTT is reduced to a navy blue formazan in the mitochondria of living cells. At the end of incubation time, 80 µL of the lysing mixture was added to each well (lysing mixture: 225 mL dimethylformamide, 67.5 g sodium dodecyl sulfate and 275 mL of distilled water). After 24 h are formed the crystals of formazan, which are insoluble in aqueous solutions. The formazan crystals had been dissolved. The optical densities were read on a Multiskan RC photometer at 570 nm wavelength. The compounds in given concentration were examined in triplicates in each experiment which was repeated 3–5 times. The results of cytotoxic activity in vitro were expressed as an IC50 in µg/mL.

Data set [4] relates to SW707 (human colorectal). Further details: method as in Boryczka et al. ([2013a], [b]). The settings on record: Neg = negative in the concentration used, ref Boryczka et al. ([2013a], [b]); cited from earlier work.
In data set [5] the test system is BALB3T3 normal mouse fibroblasts. Further details: method as in Boryczka et al. ([2013a], [b]). To be noted: murine BALB3T3 normal fibroblasts; Neg = negative in the concentration used; ref Boryczka et al. ([2013a], [b]); cited from earlier work.
Data set [6] has as its system CCRF/CEM (human leukemia). More on the design: method as in Boryczka et al. ([2013a], [b]). The settings on record: Neg = negative in the concentration used, ref Boryczka et al. ([2013a], [b]); cited from earlier work.
In data set [7] the test system is P388 (mouse leukemia). More on the design: method as in Boryczka et al. ([2013a], [b]). The settings on record: murine P388; Neg = negative in the concentration used; ref Boryczka et al. ([2013a], [b]); cited from earlier work.
Data set [8] has as its system T47D (human breast cancer). Further details: method as in Boryczka et al. ([2013a], [b]). The settings on record: Neg = negative in the concentration used, ref Boryczka et al. ([2013a], [b]); cited from earlier work.
The test system of data set [9] is SW707 (human colorectal). As to the kind of experiment: Antiproliferative assay in vitro (SRB), SW707. The settings on record: human SW707; 96 h exposure; 1 to 100 µg/mL; Neg = negative in the concentration used; read-out: Cytotoxic activity IC50, SW707. Format: cell-based. The protocol: (§2) The tested cell lines were obtained from the American Type Culture Collection (Rockville, Maryland, USA) and maintained at the Cell Culture Collection of the Institute of Immunology and Experimental Therapy (Wrocław, Poland). The cells were seeded in 96-well plates (Sarstedt, USA) at a density of 10^4 cells per well in 100 µL of culture medium overnight. […] The normal mouse fibroblasts BALB3T3 was cultured in Dulbecco’s modified Eagle’s medium (Sigma-Aldrich, Chemie GmbH, Steinheim, Germany) supplemented with 2 mM glutamine (Sigma-Aldrich, Chemie GmbH, Steinheim, Germany) and 10 % fetal calf serum FBS (Sigma-Aldrich, Chemie GmbH, Steinheim, Germany). The all culture media were supplemented with streptomycin (100 µg/mL) and penicillin (100 U/mL) (both antibiotics from Polfa, Tarchomin, Poland). The cell cultures were maintained at 37 °C in humid atmosphere saturated with 5 % CO2. This technique as first was described by Skehan et al. in [1990]. The SRB assay was performed after 96 h exposure of the cultured cells to varying concentrations (ranging from 1 to 100 µg/mL) of the tested substances. The reported derivatives as well as betulin 1 were dissolved in 10 % dimethyl sulfoxide (DMSO) to concentration of 1 mg/mL, and next diluted in culture medium to reach the required concentrations. […] The cells fastened to the plastic were fixed mildly layering cold 50 % TCA (trichloroacetic acid, Aldrich-Chemie, Germany) on the top of the culture medium in each well. The plates were incubated at 4 °C for 1 h and then washed five times with tap water. The cells fixed with TCA were stained with 0.4 % sulforhodamine B (SRB, Sigma, Germany) dissolved in 1 % acetic acid (POCH, Gliwice, Poland) for 30 min. The unbound dye was removed by rinsing four times with 1 % acetic acid. The protein-bound dye was extracted with 10 mM unbuffered tris base (POCH, Gliwice, Poland) and then determined the optical density at 540 nm in a computer-interfaced, 96-well microtiter plate reader Multiscan RC photometer (Labsystems, Helsinki, Finland). The compounds in given concentration were examined in triplicates in each experiment which was repeated 3–5 times. The results of cytotoxic activity in vitro were expressed as an IC50 in µg/mL.

Data set [10] is described as follows: Antiproliferative assay in vitro (SRB), BALB3T3. The format is cell-based, mouse. To be noted: mouse; murine BALB3T3 normal fibroblasts; 96 h exposure; 1 to 100 µg/mL; Neg = negative in the concentration used; read-out: Cytotoxic activity IC50, BALB3T3. The protocol:
as §2

Data set [11] deals with CCRF/CEM (human leukemia). As to the kind of experiment: Antiproliferative assay in vitro (MTT), CCRF/CEM. Format: cell-based. The settings on record: human CCRF/CEM; 96 h exposure; 1 to 100 µg/mL; Neg = negative in the concentration used; read-out: Cytotoxic activity IC50, CCRF/CEM. The protocol: as §1
In data set [12] the test system is P388 (mouse leukemia). In words: Antiproliferative assay in vitro (MTT), P388. The format is cell-based. The settings on record: Mus musculus; murine P388; 96 h exposure; 1 to 100 µg/mL; Neg = negative in the concentration used; read-out: Cytotoxic activity IC50, P388. The protocol:
as §1

Data set [13] relates to T47D (human breast cancer). As to the kind of experiment: Antiproliferative assay in vitro (SRB), T47D. To be noted: human T47D; 96 h exposure; 1 to 100 µg/mL; Neg = negative in the concentration used; read-out: Cytotoxic activity IC50, T47D. The format is cell-based. The protocol: as §2

Converted amounts (≈) assume the structure as drawn.

For the compound `C=C(C)[C@@H]1CC[C@]2(CO)CC[C@]3(C)[C@H](CC[C@@H]4[C@@]5(C)CCC(=O)C(C)(C)[C@@H]5CC[C@]43C)[C@@H]12` [Betulone 2, lup-20(29)-en-28-ol-3-one], in data set [1], the “antifouling activity EC50” value is reported as 8.73 µg/mL. Besides, the IC50 in [2] was 29.3 µM.

Consider `C=C(C)[C@@H]1CC[C@]2(COC(=O)CC)CC[C@]3(C)C(CCC4[C@@]5(C)CC[C@H](O)C(C)(C)C5CC[C@]43C)C12` (stereo partly shown) [Compound 3], for which, in data set [3], the IC50 was 29.3 ± 3.4 µg/mL (≈ 58.7 µM). Also, the “Cytotoxic activity IC50, SW707” value with SW707 (human colorectal) [4] was 29.2 ± 24.4 µg/mL. In addition, the “Cytotoxic activity IC50, BALB3T3” value in data set [5] is 32.3 ± 23.0 µg/mL. The “Cytotoxic activity IC50, CCRF/CEM” value in data set [6] was 8.1 ± 0.9 µg/mL. Besides, in the data set on P388 (mouse leukemia) [7], the “Cytotoxic activity IC50, P388” value was 3.3 ± 0.8 µg/mL. Also, the “Cytotoxic activity IC50, T47D” value in data set [8] was 12.1 ± 4.4 µg/mL.

Turning to `C=CC(=O)OC[C@]12CC[C@@H](C(=C)C)C1C1CCC3[C@@]4(C)CC[C@H](O)C(C)(C)C4CC[C@@]3(C)[C@]1(C)CC2` (stereo partly shown) [Compound 4, 28-O-(2-Propenoyl)betulin], the melting point lay within 117 to 121 °C. Besides, the IC50 in the data set with SW707 (human colorectal) [9] stood at 29.6 ± 4.2 µg/mL (≈ 59.6 µM). Also, the IC50 at 96 h in data set [10] worked out at 24.3 ± 6.9 µg/mL (≈ 48.9 µM). For the same compound, the IC50 in [3] turned out to be 18.8 ± 4.8 µg/mL (≈ 37.8 µM). In data set [11], the IC50 is 19.6 ± 9.5 µg/mL (≈ 39.5 µM). Besides, in the data set with P388 (mouse leukemia) [12], the IC50 was determined as 9.9 ± 5.9 µg/mL (≈ 19.9 µM). In addition, the IC50 in data set [13] stood at 7.1 ± 2.7 µg/mL (≈ 14.3 µM).

Regarding `C#CC(=O)OC[C@]12CC[C@@H](C(=C)C)C1C1CCC3[C@@]4(C)CC[C@H](O)C(C)(C)C4CC[C@@]3(C)[C@]1(C)CC2` (stereo partly shown) [Compound 5, 28-O-propynoylbetulin], the IC50 in [3] turned out to be 0.3 ± 0.004 µg/mL (≈ 0.606 µM). The “fold potent than betulin 1 against HL-60” value in [3] (relative to betulin 1, HL-60) is reported as 24 fold. The “Cytotoxic activity IC50, SW707” value in the data set on SW707 (human colorectal) [4] is 14.9 ± 3.3 µg/mL. Also, in data set [5], the “Cytotoxic activity IC50, BALB3T3” value was 0.3 ± 0.05 µg/mL. The “Cytotoxic activity IC50, CCRF/CEM” value in data set [6] was 0.02 ± 0.001 µg/mL. Also, the “Cytotoxic activity IC50, P388” value in the data set with P388 (mouse leukemia) [7] is 0.4 ± 0.1 µg/mL. Besides, in data set [8], the “Cytotoxic activity IC50, T47D” value is 9.1 ± 1.9 µg/mL.

With `C=C(C)[C@@H]1CC[C@]2(COC(=O)C#Cc3ccccc3)CC[C@]3(C)C(CCC4[C@@]5(C)CC[C@H](O)C(C)(C)C5CC[C@]43C)C12` (stereo partly shown) [Compound 7], in the data set with SW707 (human colorectal) [4], the “Cytotoxic activity IC50, SW707” value is “Neg”. Besides, the “Cytotoxic activity IC50, BALB3T3” value in data set [5] is “Neg”. The “Cytotoxic activity IC50, CCRF/CEM” value in data set [6] was 49.0 ± 9.8 µg/mL. For the same compound, the “Cytotoxic activity IC50, P388” value in the data set with P388 (mouse leukemia) [7] is “Neg”. Also, the “Cytotoxic activity IC50, T47D” value in [8] was “Neg”.

Turning to `C=C(C)[C@@H]1CC[C@]2(COC(=O)C=CC)CC[C@]3(C)C(CCC4[C@@]5(C)CC[C@H](O)C(C)(C)C5CC[C@]43C)C12` (stereo partly shown) [Compound 8, 28-O-(2-Butenoyl)betulin], the melting point was 182 to 184 °C. Further, the IC50 in the data set with SW707 (human colorectal) [9] is 32 ± 4.2 µg/mL (≈ 62.6 µM). In data set [10], the IC50 at 96 h was 25.6 ± 1.8 µg/mL (≈ 50.1 µM). For the same compound, in data set [11], the IC50 was determined as 28 ± 21.6 µg/mL (≈ 54.8 µM). Besides, in the data set on P388 (mouse leukemia) [12], the IC50 turned out to be 5.1 ± 4.9 µg/mL (≈ 9.98 µM). Besides, the IC50 in data set [13] was found to be 29.9 ± 9.3 µg/mL (≈ 58.5 µM).

In turn, `C=C(C)[C@@H]1CC[C@]2(COC(=O)C#CC)CC[C@]3(C)C(CCC4[C@@]5(C)CC[C@H](O)C(C)(C)C5CC[C@]43C)C12` (stereo partly shown) [Compound 9, 28-O-(2-Butynoyl)betulin] yielded a melting point of 111 to 113 °C. In the data set with SW707 (human colorectal) [9], the IC50 was found to be 24.3 ± 8.8 µg/mL (≈ 47.8 µM). Besides, the IC50 at 96 h in [10] was determined as 17.4 ± 1.1 µg/mL (≈ 34.2 µM). The IC50 in [3] was 24.5 ± 1.9 µg/mL (≈ 48.2 µM). Moreover, in [11], the IC50 was 2.1 ± 0.3 µg/mL (≈ 4.13 µM). Moreover, in the data set with P388 (mouse leukemia) [12], the IC50 was determined as 2.9 ± 1.4 µg/mL (≈ 5.7 µM). The IC50 in [13] came out at 16.7 ± 5.5 µg/mL (≈ 32.8 µM).
